Values of other authors in PMC5752104 (Bioorganic & medicinal chemistry, 2017).

Key:
GPR55 = GPR55 (Homo sapiens, UniProt Q9Y2T6)
Sequence of GPR55 (Q9Y2T6 whole entry): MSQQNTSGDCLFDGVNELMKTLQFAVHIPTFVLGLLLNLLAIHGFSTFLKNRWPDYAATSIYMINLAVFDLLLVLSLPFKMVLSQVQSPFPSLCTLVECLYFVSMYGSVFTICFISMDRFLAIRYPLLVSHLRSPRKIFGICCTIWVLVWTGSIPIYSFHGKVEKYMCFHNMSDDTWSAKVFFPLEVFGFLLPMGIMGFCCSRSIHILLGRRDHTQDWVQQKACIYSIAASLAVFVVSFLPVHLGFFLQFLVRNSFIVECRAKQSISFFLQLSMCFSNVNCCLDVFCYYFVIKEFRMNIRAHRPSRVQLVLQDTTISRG
Sequence of GPR55 (P32121 whole entry partner): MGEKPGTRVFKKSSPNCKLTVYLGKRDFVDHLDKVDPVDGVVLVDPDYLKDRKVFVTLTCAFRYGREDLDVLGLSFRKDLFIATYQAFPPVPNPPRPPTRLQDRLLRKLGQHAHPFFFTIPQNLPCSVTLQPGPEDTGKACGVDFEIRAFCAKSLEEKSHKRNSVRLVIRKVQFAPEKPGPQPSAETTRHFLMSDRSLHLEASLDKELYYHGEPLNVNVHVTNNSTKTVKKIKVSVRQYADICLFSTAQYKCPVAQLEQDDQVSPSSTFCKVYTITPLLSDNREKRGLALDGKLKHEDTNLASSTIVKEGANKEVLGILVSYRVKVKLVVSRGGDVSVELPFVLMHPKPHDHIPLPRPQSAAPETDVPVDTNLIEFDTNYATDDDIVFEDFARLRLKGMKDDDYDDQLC

Row | SMILES | activity at CB2 (CB2) | activity at GPR35 (GPR35) | activity at CB1 (CB1) | effect at GPR55 (GPR55)
1 | COc1ccccc1/C=C/C(=O)NC(=S)Nc1ccc(S(=O)(=O)N(C)c2ccccc2)cc1 [6fv, (E)-3-(2-Methoxyphenyl)-N-((4-(N-methyl-N-phenylsulfamoyl)phenyl)carbamothioyl)acrylamide] | no activity | no activity | no activity | 
2 | Cc1c(C(=O)NN2CCCCC2)nn(-c2ccc(Cl)cc2Cl)c1-c1ccc(I)cc1 [AM251] |  |  |  | strongly activates GPR55
3 | CCCCCCC(C)(C)c1ccc([C@@H]2C[C@H](O)CC[C@H]2CCCO)c(O)c1 [CP55940] |  |  |  | acts as an antagonist
